Data published in ChEMBL document CHEMBL4665661, “Design, synthesis, and biological activity evaluation of (-)-6-O-desmethylantofine analogues as potent anti-cancer agents” (Bioorg Med Chem, 2019).

How the values were obtained:
Bel-7402 = experiment: Antiproliferative activity against human Bel-7402 cells after 72 hrs by SRB assay; assay type: functional, cell-based; conditions: Bel-7402, 72 h
HL-60 = experiment: Antiproliferative activity against human HL-60 cells after 72 hrs by MTT assay; assay type: functional, cell-based; conditions: HL-60, 72 h

SMILES	IC50 (Bel-7402)	IC50 (HL-60)
COc1cc2c3c(c4ccc(OCCOC(=O)[C@H](C)N)cc4c2cc1OC)CN1CCC[C@@H]1C3	642 nM	494 nM
COc1cc2c3c(c4ccc(OC(=O)C(C)C)cc4c2cc1OC)CN1CCC[C@@H]1C3	60 nM	106 nM
COc1cc2c3c(c4ccc(OC(=O)/C=C/c5ccc6c(c5)OCO6)cc4c2cc1OC)CN1CCC[C@@H]1C3	185 nM	153 nM
COc1cc2c3c(c4ccc(OC(=O)c5cccc6nnsc56)cc4c2cc1OC)CN1CCC[C@@H]1C3	173 nM	227 nM
COc1cc2c3c(c4ccc(O)cc4c2cc1OC)CN1CCC[C@H]1C3	292 nM	50 nM
CC[C@H](C)[C@H](N)C(=O)OCCOc1ccc2c3c(c4cc(OC)c(OC)cc4c2c1)C[C@H]1CCCN1C3	584 nM	505 nM
COc1cc2c3c(c4ccc(OC(=O)C(C)(C)C)cc4c2cc1OC)CN1CCC[C@@H]1C3	294 nM	245 nM
COc1cc2c3c(c4ccc(OC(=O)c5cccnc5)cc4c2cc1OC)CN1CCC[C@H]1C3	1770 nM	762 nM
COc1cc2c3c(c4ccc(OC(=O)c5cccnc5)cc4c2cc1OC)CN1CCC[C@@H]1C3	133 nM	179 nM
COc1cc2c3c(c4ccc(OC(=O)C5CC5)cc4c2cc1OC)CN1CCC[C@H]1C3	877 nM	611 nM
COc1cc2c3c(c4ccc(OCCOC(=O)[C@@H](N)CC(C)C)cc4c2cc1OC)CN1CCC[C@@H]1C3	1270 nM	580 nM
COc1cc2c3c(c4ccc(OCCOC(=O)[C@@H](N)C(C)C)cc4c2cc1OC)CN1CCC[C@H]1C3	> 10000 nM	7800 nM
COc1cc2c3c(c4ccc(OC(=O)c5ccco5)cc4c2cc1OC)CN1CCC[C@@H]1C3	504 nM	178 nM
COc1cc2c3c(c4ccc(OCC#N)cc4c2cc1OC)CN1CCC[C@H]1C3	200 nM	301 nM
CCOC(=O)Oc1ccc2c3c(c4cc(OC)c(OC)cc4c2c1)C[C@@H]1CCCN1C3	2080 nM	379 nM
COc1cc2c3c(c4ccc(OC(=O)C(C)(C)C)cc4c2cc1OC)CN1CCC[C@H]1C3	1540 nM	219 nM
COc1cc2c3c(c4ccc(OC(=O)c5ccccc5)cc4c2cc1OC)CN1CCC[C@H]1C3	1090 nM	800 nM
COc1cc2c3c(c4ccc(OC(C)=O)cc4c2cc1OC)CN1CCC[C@@H]1C3	228 nM	44 nM
COc1cc2c3c(c4ccc(OCCO)cc4c2cc1OC)CN1CCC[C@H]1C3	374 nM	220 nM

SMILES	IC50 (Bel-7402)	IC50 (HL-60)
COc1cc2c3c(c4ccc(OC(=O)c5ccccc5N)cc4c2cc1OC)CN1CCC[C@@H]1C3	83 nM	25 nM
COc1cc2c3c(c4ccc(OC(=O)N(C)C)cc4c2cc1OC)CN1CCC[C@H]1C3	> 10000 nM	> 10000 nM
COc1cc2c3c(c4ccc(OC(=O)C5CCCCC5)cc4c2cc1OC)CN1CCC[C@@H]1C3	235 nM	674 nM
COc1cc2c3c(c4ccc(OC(=O)N(C)C)cc4c2cc1OC)CN1CCC[C@@H]1C3	8260 nM	2830 nM
COc1cc2c3c(c4ccc(OC(=O)/C=C/C=C/c5ccc6c(c5)OCO6)cc4c2cc1OC)CN1CCC[C@@H]1C3	199 nM	56 nM
COc1cc2c3c(c4ccc(OC(=O)C(C)C)cc4c2cc1OC)CN1CCC[C@H]1C3	1590 nM	683 nM
COc1cc2c3c(c4ccc(OCCO)cc4c2cc1OC)CN1CCC[C@@H]1C3	98 nM	81 nM
COc1cc2c3c(c4ccc(OC(=O)c5cccs5)cc4c2cc1OC)CN1CCC[C@@H]1C3	83 nM	472 nM
CCOC(=O)Oc1ccc2c3c(c4cc(OC)c(OC)cc4c2c1)C[C@H]1CCCN1C3	105 nM	66 nM
COc1cc2c3c(c4ccc(OCCOC(=O)[C@@H]5CCCN5)cc4c2cc1OC)CN1CCC[C@@H]1C3	280 nM	233 nM
COc1cc2c3c(c4ccc(OC(C)=O)cc4c2cc1OC)CN1CCC[C@H]1C3	1110 nM	756 nM
COc1cc2c3c(c4ccc(OCCOC(=O)[C@@H](N)Cc5ccccc5)cc4c2cc1OC)CN1CCC[C@@H]1C3	669 nM	568 nM
COc1cc2c3c(c4ccc(OCCOC(=O)[C@@H](N)Cc5c[nH]c6ccccc56)cc4c2cc1OC)CN1CCC[C@@H]1C3	248 nM	112 nM
COc1cc2c3c(c4ccc(OC(=O)c5ccccc5)cc4c2cc1OC)CN1CCC[C@@H]1C3	428 nM	455 nM
COc1cc2c3c(c4ccc(OCCOC(=O)[C@H](C)N)cc4c2cc1OC)CN1CCC[C@H]1C3	2830 nM	1080 nM
COc1cc2c3c(c4ccc(OC(=O)C5CC5)cc4c2cc1OC)CN1CCC[C@@H]1C3	765 nM	181 nM
COc1cc2c3c(c4ccc(OCCOC(=O)[C@@H](N)Cc5ccccc5)cc4c2cc1OC)CN1CCC[C@H]1C3	2280 nM	600 nM
COc1cc2c3c(c4ccc(O)cc4c2cc1OC)CN1CCC[C@@H]1C3	26 nM	4 nM
COc1cc2c3c(c4ccc(OCCOC(=O)[C@@H](N)C(C)C)cc4c2cc1OC)CN1CCC[C@@H]1C3	974 nM	908 nM
